Laboratory results taken from patent US20240261274A1, “TREATMENT OF MYC-DRIVEN CANCERS WITH GSPT1 DEGRADERS” (MONTE ROSA THERAPEUTICS, INC., priority 2021, published 2024).

Legend:
N-Myc = N-Myc levels in NCI-H1155 tumors (Compound 345); format: in vivo, mice; conditions: day 5, 1 mg/kg and 10 mg/kg, strongest effect at 10 mg/kg
Procedure: Additionally, plasma concentrations of Compound 345 and levels of GSPT1 and […] (relative to vehicle-only control) were measured in a time-course experiment on day 5 for the animals receiving 1 mg/kg and 10 mg/kg.
GSPT1 and N-Myc western blotting analyses from NCI-H1155 tumors: The NCI-H1155 model was run as described previously and tumors were harvested following 5 consecutive daily PO doses of Compound 345 at 1.0 and 10 mg/kg. Tumors were lysed in 1× lysis buffer (CST, Cat. No. 9803, Lot No. 0000122383) supplemented with protease (Sigma, Cat. No. P8340) and phosphatase ((Sigma, Cat. No. P5726 and P0044) cocktail inhibitors using TissueLyser II (QIAGEN #85300). Samples were spined at 15,000 rpm in an Eppendorf microfuge for 15 min at 4° C. The protein supernatant was collected in a new 1.5 ml tube and the protein concentrations were determined by the Pierce BCA kit (Thermo, Cat. No. 23225). The tumor lysate samples were mixed with 5×SDS-PAGE loading buffer boiled for 5 min and brought to ice for 5 min. 30 μg of protein was loaded onto a NUPAGE 4-12% BT gel (Invitrogen, Cat. No. NPO336BOX) for separation. […] Membranes were imaged on the Odyssey imager (Li-COR) using fluorescence or cheminulinescence detection. […] Data are expressed as mean±SEM derived from at least three different mice and collected at 0, 2, 6, 12, 24, 48, 72 and 96 hr as indicated.

[1] = test system: NSCLC cell lines expressing high levels of N-Myc (NCI-H1155, ABC-1); assay: Viability of NSCLC cell lines treated with compound 210; format: cell-based, human; conditions: compared to low N-Myc lines EBC-1, NCI-H2023
Procedure: GSPT1 was degraded by compound 210 after six hours of treatment in high N-Myc NCI-H1155 and ABC-1 cells with a DC50 of 3 nM and 22 nM, respectively (x-axis represents M concentration of compound 210; y-axis represents the viability in %).

Row | SMILES | N-Myc level relative to vehicle-only control (N-Myc) | sensitivity to treatment (viability) [1]
1 | O=C1CCC(N2Cc3ccc(COC(=O)Nc4cc(OC(F)(F)F)ccc4F)cc3C2=O)C(=O)N1 (centres unmarked) [Compound 345, (2-(2,6-dioxopiperidin-3-yl)-3-oxoisoindolin-5-yl)methyl(2-fluoro-5-(trifluoromethoxy)phenyl)carbamate] | substantially reduced | 
2 | Cc1ccc(NC(=O)OCc2ccc3c(c2)C(=O)N(C2CCC(=O)NC2=O)C3)cc1Cl (centres unmarked) [Compound 210] |  | highly sensitive
